In patent US20230302150A1, “ANTIBODY-TLR AGONIST CONJUGATES, METHODS AND USES THEREOF” (Ambrx, Inc., priority 2020, published 2023):
Like-named read-outs stand apart in the source and are kept apart here. Values belong to the compound of their own block, whether it stands above or below them.

Molecular target: T1, hTLR7 (Homo sapiens, UniProt Q9NYK1)
T1 construct: expressed in transfected cells; host or cells: HEK-Blue hTLR7 reporter cell line
T1 sequence (Q9NYK1 27-1049): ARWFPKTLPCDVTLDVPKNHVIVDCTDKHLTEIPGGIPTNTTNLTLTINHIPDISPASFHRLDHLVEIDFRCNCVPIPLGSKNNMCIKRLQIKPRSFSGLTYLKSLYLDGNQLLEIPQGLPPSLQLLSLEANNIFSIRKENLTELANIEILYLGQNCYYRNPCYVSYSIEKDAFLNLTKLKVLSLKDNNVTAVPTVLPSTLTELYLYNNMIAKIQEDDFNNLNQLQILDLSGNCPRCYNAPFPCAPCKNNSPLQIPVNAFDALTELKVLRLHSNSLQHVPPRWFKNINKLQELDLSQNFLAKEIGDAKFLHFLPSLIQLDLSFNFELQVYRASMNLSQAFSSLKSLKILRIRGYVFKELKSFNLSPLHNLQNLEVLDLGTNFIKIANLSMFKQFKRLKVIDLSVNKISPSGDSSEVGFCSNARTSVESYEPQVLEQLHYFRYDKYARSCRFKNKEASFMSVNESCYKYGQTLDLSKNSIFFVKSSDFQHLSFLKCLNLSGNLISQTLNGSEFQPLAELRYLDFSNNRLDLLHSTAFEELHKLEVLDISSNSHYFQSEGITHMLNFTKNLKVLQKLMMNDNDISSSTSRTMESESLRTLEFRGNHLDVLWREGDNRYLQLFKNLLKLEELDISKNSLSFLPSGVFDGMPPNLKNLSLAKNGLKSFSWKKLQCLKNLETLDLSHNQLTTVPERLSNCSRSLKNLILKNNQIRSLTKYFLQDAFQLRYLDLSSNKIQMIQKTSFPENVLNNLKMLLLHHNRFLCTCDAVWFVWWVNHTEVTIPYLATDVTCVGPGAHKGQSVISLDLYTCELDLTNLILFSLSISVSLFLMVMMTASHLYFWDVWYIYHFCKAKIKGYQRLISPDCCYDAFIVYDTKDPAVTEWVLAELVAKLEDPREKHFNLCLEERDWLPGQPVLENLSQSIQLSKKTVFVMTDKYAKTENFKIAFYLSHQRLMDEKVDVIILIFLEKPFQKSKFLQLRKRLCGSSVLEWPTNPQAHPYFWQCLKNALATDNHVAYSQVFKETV
Assay: HEK-Blue hTLR7 reporter assay (NF-kB-induced SEAP, Quanti-Blue)
Assay type: cell-based
Description: HEK-Blue™ hTLR7 cells were incubated in HEK-Blue™ Detection medium and stimulated with increasing concentrations of TLR7 or TLR8 or TLR7/8 agonists. […] The EC50 was determined from dose-response curve using Prism Software.

[1] = Table 12, TLR7 agonists attached to a linker, read-out: TLR Agonist Payload + Linkers EC50
[2] = Table 15, drug linker, read-out: TLR Agonist + Linker (DL) - EC50
[3] = Table 15, pAF containing final metabolite, read-out: TLR Agonist + Linker + nnAA (DL-pAF) - EC50
[4] = Table 11, TLR7 activities, read-out: EC50

SMILES: CCCCc1nc2c(N)nc3cccnc3c2n1CCCCNC(=O)c1cnccn1 [AXC-732, N-(4-(4-amino-2-butyl-1H-imidazo[4,5-c][1,5]naphthyridin-1-yl)butyl)pyrazine-2-carboxamide]
EC50 (Table 10, read-out: TLR7 EC50): 256 nM

SMILES: CCc1nc2c(N)nc3ccccc3c2n1CCCCNC(=O)/C=C/c1ccc(N(C)C)cc1 [AXC-739, (E)-N-(4-(4-amino-2-ethyl-1H-imidazo[4,5-c]quinolin-1-yl)butyl)-3-(4-(dimethylamino)phenyl)acrylamide]
EC50 (Table 10, read-out: TLR7 EC50): 28.2 nM

SMILES: CCCCc1nc2c(N)nc3ccccc3c2n1CCCCNC(=O)c1cc(F)c(NC(=O)[C@H](CCCNC(N)=O)NC(=O)[C@@H](NC(=O)CCOCCON)C(C)C)c(F)c1 [AXC-802, N-(4-(4-amino-2-butyl-1H-imidazo[4,5-c]quinolin-1-yl)butyl)-4-((S)-2-((S)-2-(3-(2-(aminooxy)ethoxy)propanamido)-3-methylbutanamido)-5-ureidopentanamido)-3,5-difluorobenzamide]
EC50 (Table 10, read-out: TLR7 EC50): > 5000 nM

SMILES: CCCCOc1nc(N)c2[nH]c(=O)n(Cc3ccc(N4CCC(CCNC(=O)CCOCCON)CC4)nc3)c2n1 [AXC-876, N-(2-(1-(5-((6-amino-2-butoxy-8-oxo-7H-purin-9(8H)-yl)methyl)pyridin-2-yl)piperidin-4-yl)ethyl)-3-(2-(aminooxy)ethoxy)propanamide]
EC50 [1]: 362 nM
EC50 [2]: 362 nM
EC50 [3]: 245 nM

SMILES: CCCCOc1nc(N)c2[nH]c(=O)n(Cc3ccc(CN4CCC(CCNC(=O)OC(C)(C)C)CC4)cc3)c2n1 [AXC-877, tert-butyl 2-(1-(4-((6-amino-2-butoxy-8-oxo-7,8-dihydro-9H-purin-9-yl)methyl)benzyl)piperidin-4-yl)ethylcarbamate]
EC50 [4]: 5.5 nM
EC50 (text to Table 11, TLR7, read-out: EC50): < 10 nM

SMILES: CCCCOc1nc(N)c2[nH]c(=O)n(Cc3ccc(CN4CCC(CCN)CC4)cc3)c2n1 [AXC-878, 6-amino-9-(4-((4-(2-aminoethyl)piperidin-1-yl)methyl)benzyl)-2-butoxy-7H-purin-8(9H)-one]
EC50 [4]: 50.4 nM

SMILES: CCCCOc1nc(N)c2[nH]c(=O)n(Cc3ccc(CN4CCC(CCNC(=O)CCOCCON)CC4)cc3)c2n1 [AXC-880, N-(2-(1-(4-((6-amino-2-butoxy-8-oxo-7H-purin-9(8H)-yl)methyl)benzyl)piperidin-4-yl)ethyl)-3-(2-(aminooxy)ethoxy)propenamide]
EC50 [1]: 410 nM
EC50 [2]: 410 nM
EC50 [3]: 167 nM

SMILES: CCCCOc1nc(N)c2[nH]c(=O)n(Cc3ccc(CNCCCCCCN)cc3)c2n1 [AXC-881, 6-amino-9-(4-((6-aminohexylamino)methyl)benzyl)-2-butoxy-7H-purin-8(9H)-one]
EC50 [4]: 87.3 nM

SMILES: CCCCOc1nc(N)c2[nH]c(=O)n(Cc3ccc(CNCCCCCCNC(=O)CON)cc3)c2n1 [AXC-882, N-(6-(4-((6-amino-2-butoxy-8-oxo-7H-purin-9(8H)-yl)methyl)benzylamino)hexyl)-2-(aminooxy)acetamide]
EC50 [1]: 551 nM
EC50 [2]: 551 nM
EC50 [3]: 343 nM

SMILES: CCCCOc1nc(N)c2[nH]c(=O)n(Cc3ccc(CN4CCC(CCNC(=O)C(C)(C)NC)CC4)cc3)c2n1 [AXC-884, N-(2-(1-(4-((6-amino-2-butoxy-8-oxo-7H-purin-9(8H)-yl)methyl)benzyl)piperidin-4-yl)ethyl)-2-methyl-2-(methylamino)propanamide]
EC50 [4]: 71.3 nM

SMILES: CCCCOc1nc(N)c2[nH]c(=O)n(Cc3ccc(CN4CCC(CCNC(=O)C(C)(C)C)CC4)cc3)c2n1 [AXC-885, N-(2-(1-(4-((6-amino-2-butoxy-8-oxo-7H-purin-9(8H)-yl)methyl)benzyl)piperidin-4-yl)ethyl)pivalamide]
EC50 [4]: 11.3 nM

SMILES: CCCCOc1nc(N)c2[nH]c(=O)n(Cc3ccc(CN4CCC(CCNC(C)=O)CC4)cc3)c2n1 [AXC-886, N-(2-(1-(4-((6-amino-2-butoxy-8-oxo-7H-purin-9(8H)-yl)methyl)benzyl)piperidin-4-yl)ethyl)acetamide]
EC50 [4]: 16.7 nM

The next lines start with the values.

EC50 (Table 10, read-out: TLR7 EC50): 249 nM
SMILES: CCCCc1nc2c(N)nc3ccccc3c2n1CCCCNC(=O)c1ccc(N)c(OC)c1 [AXC-725, 4-amino-N-(4-(4-amino-2-butyl-1H-imidazo[4,5-c]quinolin-1-yl)butyl)-3-methoxybenzamide]

EC50 (Table 10, read-out: TLR7 EC50): 213 nM
SMILES: CCCCc1nc2c(N)nc3cccnc3c2n1CCCCNC(=O)c1ccc(N)c(OC)c1 [AXC-736, 4-amino-N-(4-(4-amino-2-butyl-1H-imidazo[4,5-c][1,5]naphthyridin-1-yl)butyl)-3-methoxybenzamide]

EC50 (Table 10, read-out: TLR7 EC50): 11.1 nM
SMILES: CCc1nc2c(N)nc3ccccc3c2n1CCCCNC(=O)c1ccc(N(C)C)cc1 [AXC-738, N-(4-(4-amino-2-ethyl-1H-imidazo[4,5-c]quinolin-1-yl)butyl)-4-(dimethylamino)benzamide]

EC50 (Table 10, read-out: TLR7 EC50): 116 nM
SMILES: CCCCc1nc2c(N)nc3ccccc3c2n1CCCCNC(=O)c1ccc(N(C)C)cc1 [AXC-740, N-(4-(4-amino-2-butyl-1H-imidazo[4,5-c]quinolin-1-yl)butyl)-4-(dimethylamino)benzamide]

EC50 (Table 10, read-out: TLR7 EC50): 56.1 nM
SMILES: CCCCc1nc2c(N)nc3cccnc3c2n1CCCCNC(=O)c1ccc(N(C)C)cc1 [AXC-743, N-(4-(4-amino-2-butyl-1H-imidazo[4,5-c][1,5]naphthyridin-1-yl)butyl)-4-(dimethylamino)benzamide]

EC50 (Table 10, read-out: TLR7 EC50): 910 nM
SMILES: CCCCc1nc2c(N)nc3ccccc3c2n1CCCCNC(=O)c1ccc(N2CCCC2)cc1 [AXC-777, N-(4-(4-amino-2-butyl-1H-imidazo[4,5-c]quinolin-1-yl)butyl)-4-(pyrrolidin-1-yl)benzamide]

EC50 (Table 10, read-out: TLR7 EC50): 83.3 nM
SMILES: CCCCc1nc2c(N)nc3ccccc3c2n1CCCCNC(=O)c1ccc(N)c(F)c1 [AXC-778, 4-amino-N-(4-(4-amino-2-butyl-1H-imidazo[4,5-c]quinolin-1-yl)butyl)-3-fluorobenzamide]

EC50 (Table 10, read-out: TLR7 EC50): 242 nM
SMILES: CCCCc1nc2c(N)nc3ccccc3c2n1CCCCNC(=O)c1cc(F)c(N)c(F)c1 [AXC-779, 4-amino-N-(4-(4-amino-2-butyl-1H-imidazo[4,5-c]quinolin-1-yl)butyl)-3,5-difluorobenzamide]

EC50 (Table 10, read-out: TLR7 EC50): > 5000 nM
SMILES: CCCCc1nc2c(N)nc3ccccc3c2n1CCCCNC(=O)c1cc(F)c(NC(=O)[C@H](C)NC(=O)CON)c(F)c1 [AXC-800, (S)—N-(4-(4-amino-2-butyl-1H-imidazo[4,5-c]quinolin-1-yl)butyl)-4-(2-(2-(aminooxy)acetamido)propanamido)-3,5-difluorobenzamide]

EC50 (Table 10, read-out: TLR7 EC50): > 5000 nM
SMILES: CCCCc1nc2c(N)nc3ccccc3c2n1CCCCNC(=O)c1cc(F)c(NC(=O)[C@H](CCCNC(N)=O)NC(=O)[C@@H](NC(=O)CON)C(C)C)c(F)c1 [AXC-801, N-(4-(4-amino-2-butyl-1H-imidazo[4,5-c]quinolin-1-yl)butyl)-4-((S)-2-((S)-2-(2-(aminooxy)acetamido)-3-methylbutanamido)-5-ureidopentanamido)-3,5-difluorobenzamide]

EC50 (Table 10, read-out: TLR7 EC50): 332 nM
SMILES: CCCCc1nc2c(N)nc3ccccc3c2n1CCCCNC(=O)c1cccc(N)c1 [AXC-803, 3-amino-N-(4-(4-amino-2-butyl-1H-imidazo[4,5-c]quinolin-1-yl)butyl)benzamide]

EC50 (Table 10, read-out: TLR7 EC50): 260 nM
SMILES: CCCCc1nc2c(N)nc3ccccc3c2n1CCCCNC(=O)c1ccc(F)c(N)c1 [AXC-804, 3-amino-N-(4-(4-amino-2-butyl-1H-imidazo[4,5-c]quinolin-1-yl)butyl)-4-fluorobenzamide]

EC50 (Table 14, read-out: TLR7 EC50): 120 nM
SMILES: CCCCCNc1nc(N)nc2ccn(Cc3cc(CN4CCN(CCCNC(=O)CON)CC4)ccc3OC)c12 [AXC-860, reference compound]

EC50 [1]: 400 nM
EC50 [2]: 400 nM
EC50 [3]: 121 nM
SMILES: CCCCOc1nc(N)c2[nH]c(=O)n(Cc3ccc(CNC(=O)CON)cc3)c2n1 [AXC-862]

EC50 [1]: 829 nM
EC50 [2]: 829 nM
EC50 [3]: 283 nM
SMILES: CCCCNc1nc(N)c2[nH]c(=O)n(Cc3ccc(N4CCN(CCNC(=O)CON)CC4)nc3)c2n1 [AXC-867]

EC50 [1]: > 10000 nM
SMILES: CCCCNc1nc(N)c2[nH]c(=O)n(Cc3ccc(NCCN(C)CCNC(=O)CCOCCOCCOCCOCCON)nc3)c2n1 [AXC-869, NH2O-PEG3-Pr-(6-amino-9-((6-(2-((2-aminoethyl)(methyl)amino)ethylamino)pyridin-3-yl)methyl)-2-(butylamino)-7H-purin-8(9H)-one)acetamide]
